Read-outs that look alike come from different tables or passages of the source.
Tests used:
[1] = test system: Ba/F3_L858R/T790M/C797S cells; assay: Ba/F3_L858R/T790M/C797S cell proliferation inhibition assay (CellTiter-Glo); format: cell-based; settings: Mus musculus
Experimental: Ba/F3_L858R/T790M/C797S Cell Proliferation Inhibition Assay
In the assay, the inhibition effect of the compounds on the proliferation of Ba/F3_L858R/T790M/C797S cells was tested by adopting a CellTiter-Glo method, and the concentration IC50 of the compound for inhibiting half maximal growth of cells was obtained.
Ba/F3_L858R/T790M/C797S cells were constructed by Pharmaron Beijing Co., Ltd.
1640 medium, fetal bovine serum (FBS), Penicillin-Streptomyces, and GlutaMAX-I Supplement, purchased from GIBCO.
(§1) Brigatinib, purchased from Selleck.
(§2) CellTiter-Glo reagent, purchased from Promega.
1) Ba/F3_L858R/T790M/C797S cells were seeded in a 384-well plate at a density of 700 cells/well with 30 μL/well.
(§3) 2) Day 0: […] of gradiently-diluted compounds to be tested with a final concentration of DMSO of 0.1% was added to plate using Echo, and the plate was incubated in a cell incubator for 72 h (37° C., 5% CO2). […] of DMSO was added into each well in blank control group.
(§4) 3) Day 3: 30 μL Cell Titer-Glo reagent was added to each well, and the plate was in the dark under room temperature for 30 min.
(§5) 4) The chemiluminescent signal was detected by an Envision plate reader (PerkinElmer).
(§6) 5) Data analysis was performed using GraphPad Prism software to give the IC50 for compounds.

[2] = test system: Ba/F3_Del19/T790M/C797S cells; assay: Ba/F3_Del19/T790M/C797S cell proliferation inhibition assay (CellTiter-Glo); format: cell-based; settings: Mus musculus
Experimental: Ba/F3_Del19/T790M/C797S Cell Proliferation Inhibition Assay
In the assay, the inhibition effect of the compounds on the proliferation of Ba/F3_Del19/T790M/C797S cells was tested by adopting a CellTiter-Glo method, and the concentration IC50 of the compound for inhibiting half maximal growth of cells was obtained.
Ba/F3_Del19/T790M/C797S, purchased from Kyinno Biotechnology Co., Ltd. 1640 medium, fetal bovine serum (FBS), Penicillin-Streptomyces, and GlutaMAX-I Supplement, purchased from GIBCO.
as §1, §2
1) Ba/F3_Del19/T790M/C797S cells were seeded in a 384-well plate at a density of 700 cells/well with 30 μL/well.
as §3, §4, §5
Data analysis was performed using GraphPad Prism 6 software to give the IC50 for compounds.

A431 cells (EGFR WT) = assay: A431 cell proliferation inhibition assay (CellTiter-Glo); format: cell-based; settings: Homo sapiens
Experimental: A431 Cell Proliferation Inhibition Assay
In the assay, the inhibition effect of the compounds on the proliferation of A431 cells was tested by adopting a CellTiter-Glo method, and the concentration IC50 of the compound for inhibiting half maximal growth of cells was obtained.
A431 cells, purchased from ATCC.
DMEM medium, fetal bovine serum (FBS), and Penicillin-Streptomycin, purchased from GIBCO.
as §1, §2
1) A431 cells were seeded in a 384-well plate at a density of 800 cells/well with 30 μL/well, and the plate was cultured in a cell incubator for 24 h (37° C., 5% CO2).
as §3, §4, §5, §6

EGFR WT (wild type EGFR) = EGFR WT (wild type EGFR) (Homo sapiens (Human), UniProt P00533); assay: In vitro enzymatic TR-FRET (HTRF KinEASE-TK) kinase assay, EGFR WT; format: biochemical
Experimental: (I) In Vitro Enzymatic Experiment for EGFR WT and EGFR L858R/T790M/C797S
In the assay, the inhibition effect of the compound on the kinase activity of EGFR WT (wild type EGFR) and EGFR L858R/T790M/C797S was tested by adopting a time-resolved fluorescence resonance energy transfer (TR-FRET) method, and half maximal inhibitory concentration IC50 of the compound on the kinase activity of EGFR was obtained.
EGFR recombinase and EGFR L858R/T790M/C797S recombinase, purchased from Signalchem.
HTRF KinEASE-TK kit, purchased from Cisbio.
DTT, MnCl2, and MgCl2, purchased from Sigma.
ATP, purchased from Promega.
as §1
1) 1× working solution was prepared: 5 mM MgCl2; 1 mM DTT; 1 mM MnCl2 and 1× kinase buffer (in kit).
2) […] of gradiently-diluted compound was transferred to a 384-well plate using Echo 550 (Labcyte).
3) 5 μL of 2× EGFR WT or EGFR L858R/T790M/C797S recombinase solution was added to the 384-well plate, and the plate was incubated at room temperature for 10 min.
4) 5 μL of 2× TK-substrate-biotin substrate solution (containing ATP) was added to the 384-well plate, and the plate was incubated at room temperature for 40 min.
5) 5 μL of assay solution containing Sa-XL 665 HTRF and 5 μL of TK-antibody-Cryptatewas were added to the plate, and the plate was incubated at room temperature for 1 h.
6) The fluorescence signal values at 615 nm and 665 nm were measured for each well using an Envision microplate reader (PerkinElmer).
7) The ratio of fluorescence signal values at 665 nm and 615 nm was calculated for each well.
8) Data analysis was performed using GraphPad Prism software to give the IC50 for compounds.

[3] = BaF3, cell proliferation, 72 h, CellTiter-Glo, read-out: Ba/F3 (L858R/T790M/C797S) IC50
[4] = BaF3, cell proliferation, 72 h, CellTiter-Glo, read-out: Ba/F3 (Del19/T790M/C797S) IC50
[5] = A-431, cell proliferation, 72 h, CellTiter-Glo, read-out: A431 EGFR WT IC50
[6] = kinase activity, TR-FRET, read-out: EGFR (WT) IC50
[7] = BaF3, 72 h, read-out: Ba/F3 (L858R/T790M/C797S) IC50(nM)
[8] = BaF3, 72 h, read-out: Ba/F3 (Del19/T790M/C797S) IC50(nM)
[9] = A-431, 72 h, read-out: A431 EGFR WT IC50(nM)

Sequence of EGFR WT (wild type EGFR) (P00533 25-1210): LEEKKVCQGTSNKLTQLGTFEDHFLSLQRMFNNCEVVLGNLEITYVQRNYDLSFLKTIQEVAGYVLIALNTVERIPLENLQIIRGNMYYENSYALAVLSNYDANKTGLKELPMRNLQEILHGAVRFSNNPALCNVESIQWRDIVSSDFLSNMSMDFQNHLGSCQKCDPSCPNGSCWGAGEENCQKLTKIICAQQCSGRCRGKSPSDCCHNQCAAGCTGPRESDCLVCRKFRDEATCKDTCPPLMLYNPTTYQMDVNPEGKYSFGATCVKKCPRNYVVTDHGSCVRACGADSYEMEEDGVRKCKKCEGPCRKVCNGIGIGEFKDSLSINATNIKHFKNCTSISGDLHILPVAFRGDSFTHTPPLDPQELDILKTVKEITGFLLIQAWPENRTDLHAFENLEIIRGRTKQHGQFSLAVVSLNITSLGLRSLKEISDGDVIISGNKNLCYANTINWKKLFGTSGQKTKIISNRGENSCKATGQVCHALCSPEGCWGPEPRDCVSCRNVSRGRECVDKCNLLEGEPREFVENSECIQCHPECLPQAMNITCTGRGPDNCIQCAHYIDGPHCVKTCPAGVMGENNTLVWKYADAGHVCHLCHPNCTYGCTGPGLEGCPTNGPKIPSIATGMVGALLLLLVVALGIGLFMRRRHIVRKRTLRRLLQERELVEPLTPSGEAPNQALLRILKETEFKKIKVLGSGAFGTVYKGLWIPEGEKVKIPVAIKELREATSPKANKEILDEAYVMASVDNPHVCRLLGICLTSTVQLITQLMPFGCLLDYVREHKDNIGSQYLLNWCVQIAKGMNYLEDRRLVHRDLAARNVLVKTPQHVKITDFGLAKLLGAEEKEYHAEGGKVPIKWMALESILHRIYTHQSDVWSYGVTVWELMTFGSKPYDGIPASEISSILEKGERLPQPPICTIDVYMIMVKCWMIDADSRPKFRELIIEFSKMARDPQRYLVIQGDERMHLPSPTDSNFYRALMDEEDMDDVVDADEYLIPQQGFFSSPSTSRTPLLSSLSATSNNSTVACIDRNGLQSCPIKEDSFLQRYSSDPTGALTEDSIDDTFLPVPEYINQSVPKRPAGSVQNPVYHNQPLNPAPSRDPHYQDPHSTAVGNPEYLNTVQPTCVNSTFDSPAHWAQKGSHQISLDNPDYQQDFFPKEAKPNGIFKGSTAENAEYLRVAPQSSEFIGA

Structure (SMILES)	IC50 [1, 3]	IC50 [2, 4]	IC50 (A431 cells (EGFR WT); [5])	IC50 (EGFR WT (wild type EGFR); [6])	IC50 [1, 7]	IC50 [2, 8]	IC50 (A431 cells (EGFR WT); [9])	IC50 (EGFR WT (wild type EGFR))
COc1cc2c(cc1Nc1ncc(Br)c(Nc3ccn4ccnc4c3NS(C)(=O)=O)n1)-c1cnn(C)c1CCN2C(C)C [Compound 110]	50 to 100 nM	10 to 50 nM	100 to 1000 nM	1 to 10 nM	–	–	–	–
COc1cc2c(cc1Nc1ncc(Br)c(Nc3ccccc3P(C)(C)=O)n1)-c1cnn(C)c1CCN2 [Compound 28]	–	–	–	1 to 10 nM	< 10 nM	< 10 nM	100 to 1000 nM	–
COc1cc2c(cc1Nc1ncc(Br)c(Nc3ccc4nccnc4c3P(C)(C)=O)n1)-c1cnn(C)c1CCO2 [Compound 33]	< 10 nM	< 10 nM	50 to 100 nM	1 to 10 nM	–	–	–	–
COc1cc2c(cc1Nc1ncc(Br)c(Nc3ccccc3P(C)(C)=O)n1)-c1scnc1CCN2C [Compound 42]	< 10 nM	< 10 nM	100 to 1000 nM	1 to 10 nM	–	–	–	–
COc1cc2c(cc1Nc1ncc(Br)c(Nc3ccc4nccnc4c3P(C)(C)=O)n1)-c1cnn(C)c1CCN2CC1CC1 [Compound 12]	< 10 nM	< 10 nM	100 to 1000 nM	1 to 10 nM	–	–	–	–
COc1cc2c(cc1Nc1ncc(Br)c(Nc3ccccc3N(C)S(C)(=O)=O)n1)-c1cnn(C)c1CCN2C [Compound 4]	< 10 nM	< 10 nM	100 to 1000 nM	1 to 10 nM	–	–	–	–
COc1cc2c(cc1Nc1nc(Nc3ccccc3P(C)(C)=O)c3sccc3n1)-c1cnn(C)c1CCN2C [Compound 58]	10 to 50 nM	10 to 50 nM	> 1000 nM	10 to 50 nM	–	–	–	–
COc1cc2c(cc1Nc1ncc(Br)c(Nc3ccccc3P(C)(C)=O)n1)-c1cnn(C)c1COC2 [Compound 46]	10 to 50 nM	10 to 50 nM	100 to 1000 nM	10 to 50 nM	–	–	–	–
COc1cc2c(cc1Nc1ncc(C(F)(F)F)c(Nc3ccccc3P(C)(C)=O)n1)-c1cnn(C)c1CCN2C [Compound 26]	< 10 nM	< 10 nM	100 to 1000 nM	10 to 50 nM	–	–	–	–
COc1cc2c(cc1Nc1ncc(Br)c(Nc3ccccc3P(C)(C)=S)n1)-c1cnn(C)c1CCN2C1CCN(C)CC1 [Compound 101]	–	–	–	–	< 10 nM	< 10 nM	100 to 1000 nM	1 to 10 nM
COc1cc2c(cc1Nc1ncc(Br)c(Nc3ccc4nccnc4c3P(C)(C)=O)n1)-c1cnn(C)c1CCN2C(C)=O [Compound 15]	10 to 50 nM	< 10 nM	100 to 1000 nM	10 to 50 nM	–	–	–	–
COc1cc2c(cc1Nc1ncc(Br)c(Nc3ccccc3P(C)(C)=O)n1)-c1cnc(C)n1CCN2C [Compound 55]	100 to 1000 nM	10 to 50 nM	100 to 1000 nM	10 to 50 nM	–	–	–	–
COc1nc2c(cc1Nc1ncc(Br)c(Nc3ccccc3P(C)(C)=O)n1)-c1cnn(C)c1CCN2C [Compound 79]	10 to 50 nM	10 to 50 nM	100 to 1000 nM	10 to 50 nM	–	–	–	–
COc1cc2c(cc1Nc1ncc(Br)c(Nc3ccc4nccnc4c3P(C)(C)=O)n1)-c1cnn(C)c1CN(C)C2=O [Compound 9]	10 to 50 nM	10 to 50 nM	100 to 1000 nM	10 to 50 nM	–	–	–	–
